How the values were obtained:
Experiment in all cases: KINOMEscan Max
Type in all cases: binding
DDR1 = molecular target: T1, DDR1 (Homo sapiens, UniProt Q08345)
T1 construct: purchased Ambit (KINOMEscan Max panel service)
Protocol: (§1) Kinase panel profiling was performed at Ambit Kinomescan (http://www.ambitbio.com/technology/) using the “KINOMEscan™ Max” assay platform, a high-throughput method for screening small molecule compounds against large numbers of human kinases. KINOMEscan™ is based on a competition binding assay that quantitatively measures the ability of a compound to compete with an immobilized, active-site directed ligand. The assay is performed by combining three components: DNA-tagged kinase; immobilized ligand; and a test compound. The ability of the test compound to compete with the immobilized ligand is measured via quantitative PCR of the DNA tag. For a description of Ambit's assay protocol, see Fabian et al. A small molecule-kinase interaction map for clinical kinase inhibitors. Nat. Biotechnol. 23, 329-336 (2005).

ABL1-nonphosphorylated = ABL1-nonphosphorylated (Homo sapiens, UniProt P00519)
Protocol: as §1

FYN = molecular target: T2, FYN (Homo sapiens, UniProt P06241)
T2 construct: purchased Ambit Kinomescan (contract panel, KINOMEscan Max)
Protocol: as §1

LTK = molecular target: T3, LTK (Homo sapiens, UniProt P29376)
T3 construct: purchased Ambit Kinomescan (contract panel)
Protocol: as §1

EPHA1 = molecular target: T4, EPHA1 (Homo sapiens, UniProt P21709)
T4 construct: purchased Ambit (KINOMEscan Max panel service)
Protocol: as §1

PDGFRA = molecular target: T5, PDGFRA (Homo sapiens, UniProt P16234)
T5 construct: DNA tag (qPCR read-out)
Protocol: as §1

PIK3C2G = molecular target: T6, PIK3C2G (Homo sapiens, UniProt O75747)
T6 construct: DNA tag (qPCR read-out)
Protocol: as §1

TNK2 = molecular target: T7, TNK2 (Homo sapiens, UniProt Q07912)
T7 construct: purchased Ambit Kinomescan (contract screening service)
T7 sequence (Q07912 whole entry): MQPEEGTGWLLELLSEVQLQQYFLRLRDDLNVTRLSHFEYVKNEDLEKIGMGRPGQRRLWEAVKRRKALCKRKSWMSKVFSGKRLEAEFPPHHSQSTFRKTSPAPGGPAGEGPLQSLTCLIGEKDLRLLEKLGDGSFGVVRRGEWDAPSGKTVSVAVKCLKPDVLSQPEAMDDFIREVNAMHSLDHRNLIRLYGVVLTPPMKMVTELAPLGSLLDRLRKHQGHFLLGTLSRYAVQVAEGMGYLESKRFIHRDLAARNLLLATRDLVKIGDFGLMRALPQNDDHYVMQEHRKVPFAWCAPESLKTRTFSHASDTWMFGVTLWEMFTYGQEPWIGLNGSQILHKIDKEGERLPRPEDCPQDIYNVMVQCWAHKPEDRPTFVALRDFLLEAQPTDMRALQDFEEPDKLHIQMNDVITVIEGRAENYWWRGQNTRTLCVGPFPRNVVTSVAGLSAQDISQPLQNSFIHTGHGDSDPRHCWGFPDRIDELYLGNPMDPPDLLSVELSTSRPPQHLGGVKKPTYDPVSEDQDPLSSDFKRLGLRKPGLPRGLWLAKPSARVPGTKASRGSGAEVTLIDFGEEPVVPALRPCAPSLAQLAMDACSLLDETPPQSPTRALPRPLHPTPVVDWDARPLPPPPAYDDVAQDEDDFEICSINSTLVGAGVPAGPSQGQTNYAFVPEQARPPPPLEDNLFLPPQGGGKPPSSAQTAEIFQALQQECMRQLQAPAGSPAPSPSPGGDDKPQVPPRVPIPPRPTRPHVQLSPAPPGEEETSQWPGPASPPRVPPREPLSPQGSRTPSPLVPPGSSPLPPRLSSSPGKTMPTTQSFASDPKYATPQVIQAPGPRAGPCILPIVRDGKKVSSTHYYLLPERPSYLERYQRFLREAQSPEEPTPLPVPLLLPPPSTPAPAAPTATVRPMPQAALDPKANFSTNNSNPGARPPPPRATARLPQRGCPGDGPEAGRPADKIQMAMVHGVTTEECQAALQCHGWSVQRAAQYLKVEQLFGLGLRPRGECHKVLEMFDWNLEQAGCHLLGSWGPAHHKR
Protocol: as §1

DRAK2 = molecular target: T8, DRAK2 (Homo sapiens, UniProt O94768)
T8 construct: purchased Ambit (KINOMEscan Max panel service)
Protocol: as §1

SNARK = molecular target: T9, SNARK (Homo sapiens, UniProt Q9H093); conditions: 1 μM
T9 construct: DNA tag (qPCR read-out)
Protocol: as §1

[1] = molecular target: ABL1(Q252H)-nonphosphorylated (Homo sapiens, UniProt P00519, Q252H)
Protocol: as §1

ERK1 = molecular target: T10, ERK1 (Homo sapiens, UniProt P27361)
T10 construct: purchased Ambit Kinomescan (contract panel, KINOMEscan Max)
Protocol: as §1

LRRK2(G2019S) = molecular target: T11, LRRK2(G2019S) (Homo sapiens, UniProt Q5S007, G2019S)
T11 construct: purchased Ambit (KINOMEscan Max service)
Protocol: as §1

NEK3 = NEK3 (Homo sapiens, UniProt P51956)
NEK3, sequence (P51956 whole entry): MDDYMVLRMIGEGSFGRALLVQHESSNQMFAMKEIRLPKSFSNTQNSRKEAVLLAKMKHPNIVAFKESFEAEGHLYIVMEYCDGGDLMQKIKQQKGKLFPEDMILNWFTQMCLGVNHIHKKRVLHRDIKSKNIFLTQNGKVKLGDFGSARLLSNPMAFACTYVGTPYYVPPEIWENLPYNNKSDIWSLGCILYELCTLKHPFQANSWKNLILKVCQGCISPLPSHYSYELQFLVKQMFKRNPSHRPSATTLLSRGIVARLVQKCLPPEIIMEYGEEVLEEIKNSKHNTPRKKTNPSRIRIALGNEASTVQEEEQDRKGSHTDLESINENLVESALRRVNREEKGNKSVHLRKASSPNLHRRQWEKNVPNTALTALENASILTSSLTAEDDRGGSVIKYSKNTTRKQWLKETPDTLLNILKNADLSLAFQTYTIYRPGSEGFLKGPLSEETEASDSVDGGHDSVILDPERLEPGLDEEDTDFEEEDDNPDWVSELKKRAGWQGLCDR
Protocol: as §1

TRKB = TRKB (Homo sapiens, UniProt Q16620)
Protocol: as §1

FGFR1 = molecular target: T12, FGFR1 (Homo sapiens, UniProt P11362)
T12 construct: purchased Ambit Kinomescan (contract panel, KINOMEscan Max)
T12 sequence (P11362 22-822): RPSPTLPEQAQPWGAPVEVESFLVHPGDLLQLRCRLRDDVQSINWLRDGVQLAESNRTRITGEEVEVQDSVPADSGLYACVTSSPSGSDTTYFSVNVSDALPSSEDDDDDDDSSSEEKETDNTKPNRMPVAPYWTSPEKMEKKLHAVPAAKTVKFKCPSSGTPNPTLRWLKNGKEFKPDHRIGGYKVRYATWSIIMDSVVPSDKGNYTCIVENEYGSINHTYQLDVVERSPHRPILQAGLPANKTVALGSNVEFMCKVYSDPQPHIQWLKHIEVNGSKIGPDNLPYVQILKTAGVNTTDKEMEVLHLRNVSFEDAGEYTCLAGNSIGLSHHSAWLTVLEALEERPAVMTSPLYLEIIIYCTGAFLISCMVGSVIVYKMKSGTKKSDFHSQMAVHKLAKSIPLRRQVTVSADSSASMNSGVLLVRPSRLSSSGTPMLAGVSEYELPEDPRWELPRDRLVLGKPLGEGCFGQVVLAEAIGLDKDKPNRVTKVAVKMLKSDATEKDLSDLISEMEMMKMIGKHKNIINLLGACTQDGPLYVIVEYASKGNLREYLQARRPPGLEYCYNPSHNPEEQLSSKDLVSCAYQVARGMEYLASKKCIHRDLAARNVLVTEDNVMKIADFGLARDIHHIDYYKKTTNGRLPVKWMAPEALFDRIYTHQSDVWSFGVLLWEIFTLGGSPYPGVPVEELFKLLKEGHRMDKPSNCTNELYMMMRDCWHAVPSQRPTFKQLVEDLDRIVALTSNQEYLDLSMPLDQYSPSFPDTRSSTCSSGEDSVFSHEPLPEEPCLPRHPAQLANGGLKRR
Protocol: as §1

MAP3K1 = molecular target: T13, MAP3K1 (Homo sapiens, UniProt Q13233)
T13 construct: purchased Ambit Kinomescan (contract panel)
Protocol: as §1

ULK2 = molecular target: T14, ULK2 (Homo sapiens, UniProt Q8IYT8)
T14 construct: purchased Ambit (KINOMEscan Max service)
Protocol: as §1

p38-beta = p38-beta (Homo sapiens, UniProt Q15759)
Protocol: as §1

RIOK2 = molecular target: T15, RIOK2 (Homo sapiens, UniProt Q9BVS4)
T15 construct: DNA tag (qPCR read-out)
T15 sequence (Q9BVS4 whole entry): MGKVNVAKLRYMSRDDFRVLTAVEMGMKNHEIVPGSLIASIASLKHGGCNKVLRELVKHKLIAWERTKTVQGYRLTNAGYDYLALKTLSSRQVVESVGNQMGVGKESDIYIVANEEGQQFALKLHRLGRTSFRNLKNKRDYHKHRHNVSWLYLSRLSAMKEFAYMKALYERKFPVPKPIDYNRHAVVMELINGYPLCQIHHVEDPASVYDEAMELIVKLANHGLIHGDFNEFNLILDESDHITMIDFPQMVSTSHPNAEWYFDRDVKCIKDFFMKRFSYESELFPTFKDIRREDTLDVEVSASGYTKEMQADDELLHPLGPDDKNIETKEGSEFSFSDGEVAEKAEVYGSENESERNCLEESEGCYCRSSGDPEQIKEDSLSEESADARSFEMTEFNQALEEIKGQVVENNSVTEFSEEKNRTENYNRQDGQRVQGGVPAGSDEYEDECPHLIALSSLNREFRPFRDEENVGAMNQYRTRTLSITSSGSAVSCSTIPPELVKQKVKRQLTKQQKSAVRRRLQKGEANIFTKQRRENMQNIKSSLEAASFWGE
Protocol: as §1

IRAK1 = molecular target: T16, IRAK1 (Homo sapiens, UniProt P51617)
T16 construct: DNA tag (qPCR read-out)
Protocol: as §1

PIP5K1A = PIP5K1A (Homo sapiens, UniProt Q99755)
Protocol: as §1

[2] = molecular target: T17, JAK1(JH2domain-pseudokinase) (Homo sapiens, UniProt P23458); conditions: 1 μM
T17 construct: JAK1(JH2domain-pseudokinase)
T17 sequence (P23458 583-855 limits assumed): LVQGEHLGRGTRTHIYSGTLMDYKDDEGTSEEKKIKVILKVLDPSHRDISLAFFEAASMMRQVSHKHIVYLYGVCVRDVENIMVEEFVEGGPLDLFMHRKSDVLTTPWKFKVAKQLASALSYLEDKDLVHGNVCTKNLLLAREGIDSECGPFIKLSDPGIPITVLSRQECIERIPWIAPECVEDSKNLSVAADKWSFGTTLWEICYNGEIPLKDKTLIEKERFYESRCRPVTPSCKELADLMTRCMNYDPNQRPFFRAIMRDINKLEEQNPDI
Protocol: as §1

[3] = molecular target: ABL1(Q252H)-phosphorylated (Homo sapiens, UniProt P00519, Q252H)
Protocol: as §1

SIK2 = molecular target: T18, SIK2 (Homo sapiens, UniProt Q9H0K1)
T18 construct: DNA tag (qPCR read-out)
Protocol: as §1

ERBB2 = molecular target: T19, ERBB2 (Homo sapiens, UniProt P04626)
T19 construct: purchased Ambit Kinomescan (contract panel, KINOMEscan Max)
Protocol: as §1

RIPK2 = molecular target: T20, RIPK2 (Homo sapiens, UniProt O43353)
T20 construct: DNA tag (qPCR read-out)
Protocol: as §1

[4] = molecular target: ABL1(H396P)-phosphorylated (Homo sapiens, UniProt P00519, H396P)
Protocol: as §1

PIK3CA(E542K) = PIK3CA(E542K) (Homo sapiens, UniProt P42336, E542K)
Protocol: as §1

NEK9 = NEK9 (Homo sapiens, UniProt Q8TD19)
Protocol: as §1

MLCK = MLCK (Homo sapiens, UniProt Q32MK0)
Protocol: as §1

ICK = molecular target: T21, ICK (Homo sapiens, UniProt Q9UPZ9)
T21 construct: purchased Ambit Kinomescan (contract panel, KINOMEscan Max)
Protocol: as §1

ITK = molecular target: T22, ITK (Homo sapiens, UniProt Q08881); conditions: 1 μM
T22 construct: purchased Ambit Kinomescan (contract panel)
Protocol: as §1

PLK3 = molecular target: T23, PLK3 (Homo sapiens, UniProt Q9H4B4)
T23 construct: purchased Ambit (KINOMEscan Max service)
Protocol: as §1

AAK1 = molecular target: T24, AAK1 (Homo sapiens, UniProt Q2M2I8)
T24 construct: purchased Ambit Kinomescan (contract screening)
T24 sequence (Q2M2I8 whole entry): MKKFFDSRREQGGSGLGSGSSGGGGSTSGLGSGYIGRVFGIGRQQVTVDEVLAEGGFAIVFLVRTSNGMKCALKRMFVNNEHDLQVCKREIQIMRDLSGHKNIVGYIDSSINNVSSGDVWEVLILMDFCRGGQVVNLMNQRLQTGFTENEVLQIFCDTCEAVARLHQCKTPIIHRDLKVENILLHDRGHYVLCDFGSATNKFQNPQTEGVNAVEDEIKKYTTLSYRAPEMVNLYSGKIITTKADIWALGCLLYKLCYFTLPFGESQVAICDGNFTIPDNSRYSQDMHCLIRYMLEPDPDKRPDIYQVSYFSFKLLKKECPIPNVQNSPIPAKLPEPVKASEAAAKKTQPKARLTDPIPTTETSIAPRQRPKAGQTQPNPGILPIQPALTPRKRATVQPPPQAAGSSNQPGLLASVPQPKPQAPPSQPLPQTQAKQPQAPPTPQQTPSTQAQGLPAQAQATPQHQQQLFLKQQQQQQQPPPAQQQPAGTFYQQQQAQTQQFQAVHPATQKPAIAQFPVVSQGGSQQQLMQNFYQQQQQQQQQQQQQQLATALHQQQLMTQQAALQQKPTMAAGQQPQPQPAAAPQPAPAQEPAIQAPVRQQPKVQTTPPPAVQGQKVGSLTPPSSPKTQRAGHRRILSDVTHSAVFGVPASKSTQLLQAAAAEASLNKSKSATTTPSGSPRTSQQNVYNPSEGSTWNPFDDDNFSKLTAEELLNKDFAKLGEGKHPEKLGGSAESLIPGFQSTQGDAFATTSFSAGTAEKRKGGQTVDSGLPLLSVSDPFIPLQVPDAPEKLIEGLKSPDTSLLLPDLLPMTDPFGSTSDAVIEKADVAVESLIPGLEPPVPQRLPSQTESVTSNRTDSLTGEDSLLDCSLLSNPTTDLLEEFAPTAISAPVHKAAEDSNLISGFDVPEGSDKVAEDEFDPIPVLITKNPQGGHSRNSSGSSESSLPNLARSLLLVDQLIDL
Protocol: as §1

T1 sequence (Q08345 19-913): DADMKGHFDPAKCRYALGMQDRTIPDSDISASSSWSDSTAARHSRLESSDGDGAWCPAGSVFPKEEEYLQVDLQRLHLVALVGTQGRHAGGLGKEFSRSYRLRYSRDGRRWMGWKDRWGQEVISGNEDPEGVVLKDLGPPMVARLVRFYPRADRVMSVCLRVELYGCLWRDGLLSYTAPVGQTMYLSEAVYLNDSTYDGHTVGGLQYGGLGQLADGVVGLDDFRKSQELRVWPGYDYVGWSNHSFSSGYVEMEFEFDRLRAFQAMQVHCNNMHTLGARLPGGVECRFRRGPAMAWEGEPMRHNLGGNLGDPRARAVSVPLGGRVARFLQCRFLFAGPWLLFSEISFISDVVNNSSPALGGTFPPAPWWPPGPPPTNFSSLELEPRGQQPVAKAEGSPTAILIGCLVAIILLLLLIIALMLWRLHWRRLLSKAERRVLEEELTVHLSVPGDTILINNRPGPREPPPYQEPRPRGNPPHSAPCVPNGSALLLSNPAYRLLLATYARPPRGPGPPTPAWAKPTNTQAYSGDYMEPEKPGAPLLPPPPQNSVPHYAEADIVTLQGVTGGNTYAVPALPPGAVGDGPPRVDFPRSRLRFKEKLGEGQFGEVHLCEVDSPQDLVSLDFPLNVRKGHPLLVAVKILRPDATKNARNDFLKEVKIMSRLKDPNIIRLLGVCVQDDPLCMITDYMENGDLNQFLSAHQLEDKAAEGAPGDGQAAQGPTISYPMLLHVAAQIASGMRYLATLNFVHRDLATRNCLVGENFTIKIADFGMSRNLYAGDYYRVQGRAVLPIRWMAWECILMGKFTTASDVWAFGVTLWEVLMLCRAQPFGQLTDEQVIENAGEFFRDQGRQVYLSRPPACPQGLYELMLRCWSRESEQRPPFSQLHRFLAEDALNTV

Structure (SMILES): NCCCNc1nc2c(Br)c(Br)c(Br)c(Br)c2[nH]1 [Compound 11, N-(3-aminopropyl)-4,5,6,7-tetrabromo-1H-benzo[d]imidazol-2-amine]
- remaining binding at 1 µM (DDR1): 100%
- remaining binding at 1 µM (ABL1-nonphosphorylated): 100%
- remaining binding at 1 µM (FYN): 100%
- remaining binding at 1 µM (LTK): 100%
- remaining binding at 1 µM (EPHA1): 100%
- remaining binding at 1 µM (PDGFRA): 100%
- remaining binding at 1 µM (PIK3C2G): 100%
- remaining binding at 1 µM (TNK2): 100%
- remaining binding at 1 µM (DRAK2): 100%
- % binding (SNARK): 54%
- remaining binding at 1 µM [1]: 95%
- remaining binding at 1 µM (ERK1): 100%
- remaining binding at 1 µM (LRRK2(G2019S)): 70%
- remaining binding at 1 µM (NEK3): 93%
- remaining binding at 1 µM (TRKB): 92%
- remaining binding at 1 µM (FGFR1): 100%
- remaining binding at 1 µM (MAP3K1): 100%
- remaining binding at 1 µM (ULK2): 60%
- remaining binding at 1 µM (p38-beta): 95%
- remaining binding at 1 µM (RIOK2): 100%
- remaining binding at 1 µM (IRAK1): 52%
- remaining binding at 1 µM (PIP5K1A): 75%
- % binding [2]: 93%
- remaining binding at 1 µM [3]: 100%
- remaining binding at 1 µM (SIK2): 100%
- remaining binding at 1 µM (ERBB2): 100%
- remaining binding at 1 µM (RIPK2): 100%
- remaining binding at 1 µM [4]: 100%
- remaining binding at 1 µM (PIK3CA(E542K)): 98%
- remaining binding at 1 µM (NEK9): 95%
- remaining binding at 1 µM (MLCK): 92%
- remaining binding at 1 µM (ICK): 100%
- % binding (ITK): 100%
- remaining binding at 1 µM (PLK3): 67%
- remaining binding at 1 µM (AAK1): 97%

— US20110230481A2, “DERIVATIVES OF TETRABROMOBENZIMIDAZOLE, A PROCESS FOR THE PREPARATION THEREOF, A PHARMACEUTICAL COMPOSITION COMPRISING THE SAME, A METHOD OF USING THE SAME, A METHOD FOR MODULATING OR REGULATING SERINE/THREONINE KINASES, AND SERINE/THREONINE KINASES MODULATING AGENT” (SELVITA S.A., priority 2009, published 2011)
